Test results as given in US11912703B2, “6-azaindole compounds” (BRISTOL-MYERS SQUIBB COMPANY, priority 2017, dated 2024).
Where two headings read alike, the source gives them in different places.

Experiments:
human TLR8 = human TLR8 (Homo sapiens (Human), UniProt Q9NR97); test: TLR8 inhibition reporter assay (HEK-Blue SEAP);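 further: SEAP driven by IFN-β minimal promoter with five NF-κB and AP-1 sites, compounds tested 0.05 nM to 50 µM, 22 h incubation, inhibition relative to agonist plus DMSO wells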
human TLR7 = human TLR7 (Homo sapiens (Human), UniProt Q9NYK1); test: TLR7 inhibition reporter assay (HEK-Blue SEAP); type: cell-based; details: HEK-Blue cells overexpressing human TLR7, gardiquimod 7.5 μM stimulation
human TLR9 = human TLR9 (Homo sapiens (Human), UniProt Q9NR96); test: TLR9 inhibition reporter assay (HEK-Blue SEAP);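 further: SEAP driven by IFN-β minimal promoter carrying five NF-κB and AP-1 sites, 22 h at 37 °C, compounds 0.05 nM–50 µM, inhibition scaled between agonist-plus-DMSO and reference-inhibitor wells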
[1] = read-out: TLR8 IC50, HEK-Blue cells overexpressing human TLR8, R848 15.9 μM stimulation, SEAP reporter
[2] = read-out: TLR9 IC50, HEK-Blue cells overexpressing human TLR9, ODN2006 5 nM stimulation, SEAP reporter

Sequence of human TLR8 (Q9NR97 27-1041): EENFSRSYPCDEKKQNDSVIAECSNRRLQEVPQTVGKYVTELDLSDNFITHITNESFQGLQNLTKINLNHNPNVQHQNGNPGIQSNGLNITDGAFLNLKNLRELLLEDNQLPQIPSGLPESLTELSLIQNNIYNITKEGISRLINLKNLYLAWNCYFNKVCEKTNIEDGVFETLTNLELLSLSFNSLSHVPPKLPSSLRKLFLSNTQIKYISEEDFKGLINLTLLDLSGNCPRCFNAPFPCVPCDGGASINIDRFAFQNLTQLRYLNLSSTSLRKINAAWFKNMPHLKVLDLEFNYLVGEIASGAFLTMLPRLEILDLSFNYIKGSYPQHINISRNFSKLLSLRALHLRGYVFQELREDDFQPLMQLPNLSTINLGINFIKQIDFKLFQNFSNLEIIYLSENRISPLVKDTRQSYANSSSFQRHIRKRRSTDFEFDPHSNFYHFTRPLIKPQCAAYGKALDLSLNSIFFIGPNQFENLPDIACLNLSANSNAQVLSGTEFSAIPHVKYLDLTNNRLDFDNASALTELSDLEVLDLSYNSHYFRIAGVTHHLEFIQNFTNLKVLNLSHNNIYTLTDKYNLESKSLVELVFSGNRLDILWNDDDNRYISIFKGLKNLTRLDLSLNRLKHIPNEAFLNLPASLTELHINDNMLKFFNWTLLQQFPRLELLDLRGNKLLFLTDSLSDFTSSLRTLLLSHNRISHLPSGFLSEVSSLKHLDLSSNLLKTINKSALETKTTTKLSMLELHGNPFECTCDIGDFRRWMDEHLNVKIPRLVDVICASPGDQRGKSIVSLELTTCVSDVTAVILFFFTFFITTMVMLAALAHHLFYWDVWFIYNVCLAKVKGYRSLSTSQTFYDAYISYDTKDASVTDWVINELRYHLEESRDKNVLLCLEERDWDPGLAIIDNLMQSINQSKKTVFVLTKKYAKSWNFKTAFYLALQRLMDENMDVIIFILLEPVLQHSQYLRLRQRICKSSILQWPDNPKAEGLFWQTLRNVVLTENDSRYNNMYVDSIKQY
Sequence of human TLR7 (Q9NYK1 27-1049): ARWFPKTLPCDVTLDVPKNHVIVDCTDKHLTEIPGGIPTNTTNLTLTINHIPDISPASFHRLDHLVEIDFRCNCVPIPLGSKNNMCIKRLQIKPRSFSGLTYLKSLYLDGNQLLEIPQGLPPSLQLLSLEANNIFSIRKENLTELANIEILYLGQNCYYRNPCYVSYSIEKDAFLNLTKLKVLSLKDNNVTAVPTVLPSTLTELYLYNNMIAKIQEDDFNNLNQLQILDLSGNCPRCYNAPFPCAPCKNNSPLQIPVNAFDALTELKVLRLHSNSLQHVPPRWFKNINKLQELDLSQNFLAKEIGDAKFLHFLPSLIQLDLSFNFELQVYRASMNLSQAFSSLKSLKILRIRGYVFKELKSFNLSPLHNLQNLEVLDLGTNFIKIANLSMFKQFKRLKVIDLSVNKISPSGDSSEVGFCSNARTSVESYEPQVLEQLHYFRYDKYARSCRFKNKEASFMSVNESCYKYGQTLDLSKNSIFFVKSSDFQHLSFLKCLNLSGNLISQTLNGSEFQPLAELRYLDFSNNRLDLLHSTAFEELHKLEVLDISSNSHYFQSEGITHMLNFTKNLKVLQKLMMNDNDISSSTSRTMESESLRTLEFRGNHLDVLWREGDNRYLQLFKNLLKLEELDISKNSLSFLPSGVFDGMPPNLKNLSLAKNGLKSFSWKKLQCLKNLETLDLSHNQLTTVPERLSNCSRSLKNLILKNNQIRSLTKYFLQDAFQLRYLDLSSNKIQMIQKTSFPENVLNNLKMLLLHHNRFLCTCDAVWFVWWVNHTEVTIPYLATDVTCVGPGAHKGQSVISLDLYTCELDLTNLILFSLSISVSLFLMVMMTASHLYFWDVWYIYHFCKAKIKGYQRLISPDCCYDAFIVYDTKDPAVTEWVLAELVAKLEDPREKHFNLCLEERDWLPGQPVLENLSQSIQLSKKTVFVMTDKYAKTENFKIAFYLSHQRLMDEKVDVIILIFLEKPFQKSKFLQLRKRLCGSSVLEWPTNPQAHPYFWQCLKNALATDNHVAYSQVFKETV
Sequence of human TLR9 (Q9NR96 26-1032): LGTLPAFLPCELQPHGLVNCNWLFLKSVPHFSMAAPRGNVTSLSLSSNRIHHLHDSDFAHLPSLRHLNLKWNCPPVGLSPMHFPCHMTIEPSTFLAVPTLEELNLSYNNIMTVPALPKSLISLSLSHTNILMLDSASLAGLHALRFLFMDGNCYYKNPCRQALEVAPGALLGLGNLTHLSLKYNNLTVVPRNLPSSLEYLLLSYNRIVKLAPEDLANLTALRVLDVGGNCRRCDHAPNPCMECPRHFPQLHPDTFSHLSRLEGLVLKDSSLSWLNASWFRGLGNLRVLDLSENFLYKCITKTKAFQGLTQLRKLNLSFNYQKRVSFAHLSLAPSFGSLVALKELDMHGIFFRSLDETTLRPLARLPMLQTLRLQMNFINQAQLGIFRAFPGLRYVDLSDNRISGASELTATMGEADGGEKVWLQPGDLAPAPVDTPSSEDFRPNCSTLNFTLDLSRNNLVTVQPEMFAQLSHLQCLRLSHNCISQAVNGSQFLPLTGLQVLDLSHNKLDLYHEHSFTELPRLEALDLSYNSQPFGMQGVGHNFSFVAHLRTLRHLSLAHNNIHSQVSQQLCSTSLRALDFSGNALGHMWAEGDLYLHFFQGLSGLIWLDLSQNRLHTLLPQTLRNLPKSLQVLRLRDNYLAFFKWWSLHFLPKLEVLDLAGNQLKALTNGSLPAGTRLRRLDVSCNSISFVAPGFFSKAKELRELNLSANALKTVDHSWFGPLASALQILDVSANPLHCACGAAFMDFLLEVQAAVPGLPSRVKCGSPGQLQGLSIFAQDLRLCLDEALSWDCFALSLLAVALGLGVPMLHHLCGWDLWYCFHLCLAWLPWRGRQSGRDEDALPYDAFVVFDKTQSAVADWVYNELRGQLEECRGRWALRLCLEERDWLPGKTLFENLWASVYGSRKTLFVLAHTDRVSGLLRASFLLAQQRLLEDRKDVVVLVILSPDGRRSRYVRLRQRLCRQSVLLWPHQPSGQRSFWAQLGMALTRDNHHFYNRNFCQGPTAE

IC50 (human TLR8; [1]) | IC50 (human TLR7) | IC50 (human TLR9; [2]) | IC50 (human TLR9) | IC50 (human TLR8) | Compound
0.016 µM | 0.016 µM | 1.41 µM |  |  | COc1cc(-c2[nH]c3cnc(N4CC5(C4)CN(C4CCN(C(C)C)CC4)C5)c(F)c3c2C(C)C)cn2ncnc12 [Example 377]
0.0034 µM | 0.006 µM | 5.11 µM |  |  | COc1cc(-c2[nH]c3cnc(N4CC5(CN(C)C5)C4)c(F)c3c2C(C)C)cn2ncnc12 [Example 378]
0.0023 µM | 0.004 µM | 3.63 µM |  |  | CCN1CC2(C1)CN(c1ncc3[nH]c(-c4cc(OC)c5ncnn5c4)c(C(C)C)c3c1F)C2 [Example 379]
0.0078 µM | 0.0056 µM | 1.48 µM |  |  | CCCN1CC2(C1)CN(c1ncc3[nH]c(-c4cc(OC)c5ncnn5c4)c(C(C)C)c3c1F)C2 [Example 380]
0.011 µM | 0.0099 µM | 2.58 µM |  |  | COc1cc(-c2[nH]c3cnc(N4CC5(C4)CN(C4CCC4)C5)c(F)c3c2C(C)C)cn2ncnc12 [Example 381]
0.018 µM | 0.0045 µM | > 50 µM |  |  | COc1cc(-c2[nH]c3cnc(N4CCN(C5COC5)CC4)c(F)c3c2C(C)C)cn2ncnc12 [Example 382]
0.00031 µM | 0.0027 µM | 5.39 µM |  |  | COc1cc(-c2[nH]c3cnc(N4CCN(CC5CCOCC5)CC4)c(F)c3c2C(C)C)cn2ncnc12 [Example 383]
0.00055 µM | 0.00096 µM | 3.26 µM |  |  | COc1cc(-c2[nH]c3cnc(N4CCN(C(C)C)CC4)c(F)c3c2C(C)C)cn2ncnc12 [Example 384]
0.0014 µM | 0.0041 µM | 42.1 µM |  |  | COc1cc(-c2[nH]c3cnc(N4CCN(CC5(C)COC5)CC4)c(F)c3c2C(C)C)cn2ncnc12 [Example 385]
0.00081 µM | 0.0027 µM | 1.89 µM |  |  | COc1cc(-c2[nH]c3cnc(N4CCN(C5CCN(C(C)C)CC5)CC4)c(F)c3c2C(C)C)cn2ncnc12 [Example 388]
0.00038 µM | 0.0011 µM | 6.16 µM |  |  | CCN1CCN(c2ncc3[nH]c(-c4cc(OC)c5ncnn5c4)c(C(C)C)c3c2F)CC1 [Example 389]
0.00015 µM | 0.0023 µM | 4.06 µM |  |  | COc1cc(-c2[nH]c3cnc(N4CCN(CC5CC5)CC4)c(F)c3c2C(C)C)cn2ncnc12 [Example 390]
0.0009 µM | 0.0014 µM | 4.05 µM |  |  | COc1cc(-c2[nH]c3cnc(N4CCN(C5CCC5)CC4)c(F)c3c2C(C)C)cn2ncnc12 [Example 391]
0.013 µM | 0.024 µM | 8.84 µM |  |  | Cc1c(-c2[nH]c3cnc(N4CC5(CNC5)C4)c(F)c3c2C(C)C)cn2ncnc2c1C [Example 392, 6-(4-fluoro-3-isopropyl-5-(2,6-diazaspiro[3.3]heptan-2-yl)-1H-pyrrolo[2,3-c]pyridin-2-yl)-7,8-dimethyl-[1,2,4]triazolo[1,5-a]pyridine]
0.00051 µM | 0.0014 µM | 8.73 µM |  |  | Cc1c(-c2[nH]c3cnc(N4CCNCC4)c(F)c3c2C(C)C)cn2ncnc2c1C [Example 393]
0.0066 µM | 0.044 µM | 17.5 µM |  |  | CNC(=O)CN1CC2(C1)CN(c1ncc3[nH]c(-c4cn5ncnc5c(C)c4C)c(C(C)C)c3c1F)C2 [Example 395, 2-(6-(2-(7,8-dimethyl-[1,2,4]triazolo[1,5-a]pyridin-6-yl)-4-fluoro-3-isopropyl-1H-pyrrolo[2,3-c]pyridin-5-yl)-2,6-diazaspiro[3.3]heptan-2-yl)-N-methylacetamide]
0.019 µM | 0.099 µM | > 50 µM |  |  | Cc1c(-c2[nH]c3cnc(N4CC5(CN(CCS(C)(=O)=O)C5)C4)c(F)c3c2C(C)C)cn2ncnc2c1C [Example 396]
0.03 µM | 0.048 µM | 43.2 µM |  |  | Cc1c(-c2[nH]c3cnc(N4CC5(CN(CC#N)C5)C4)c(F)c3c2C(C)C)cn2ncnc2c1C [Example 397]
0.0019 µM | 0.0072 µM | 46.8 µM |  |  | Cc1c(-c2[nH]c3cnc(N4CCN(CCS(C)(=O)=O)CC4)c(F)c3c2C(C)C)cn2ncnc2c1C [Example 398]
0.0041 µM | 0.409 µM |  | > 50 µM |  | Cc1c(-c2[nH]c3cnc(N4CC5(CN(C(=O)CN6CCOCC6)C5)C4)c(F)c3c2C(C)C)cn2ncnc2c1C [Example 399, 1-(6-(2-(7,8-dimethyl-[1,2,4]triazolo[1,5-a]pyridin-6-yl)-4-fluoro-3-isopropyl-1H-pyrrolo[2,3-c]pyridin-5-yl)-2,6-diazaspiro[3.3]heptan-2-yl)-2-morpholinoethan-1-one]
 | 0.082 µM |  | > 50 µM | 0.0016 µM | Cc1c(-c2[nH]c3cnc(N4CC5(C4)CN(C4COC4)C5)c(F)c3c2C(C)C)cn2ncnc2c1C [Example 400, 6-(4-fluoro-3-isopropyl-5-(6-(oxetan-3-yl)-2,6-diazaspiro[3.3]heptan-2-yl)-1H-pyrrolo[2,3-c]pyridin-2-yl)-7,8-dimethyl-[1,2,4]triazolo[1,5-a]pyridine]
0.0044 µM | 0.027 µM | 6.44 µM |  |  | Cc1c(-c2[nH]c3cnc(N4CC5(C4)CN(C4CCOCC4)C5)c(F)c3c2C(C)C)cn2ncnc2c1C [Example 401]

IC50 (human TLR8; [1]) | IC50 (human TLR7) | IC50 (human TLR9; [2]) | IC50 (human TLR9) | IC50 (human TLR8) | Compound
0.0044 µM | 0.03 µM | 5.97 µM |  |  | Cc1c(-c2[nH]c3cnc(N4CC5(CN(CC(C)C)C5)C4)c(F)c3c2C(C)C)cn2ncnc2c1C [Example 402]
0.0017 µM | 0.025 µM | 9.27 µM |  |  | Cc1c(-c2[nH]c3cnc(N4CC5(C4)CN(C(C)C)C5)c(F)c3c2C(C)C)cn2ncnc2c1C [Example 403]
0.004 µM | 0.032 µM | 5.81 µM |  |  | Cc1c(-c2[nH]c3cnc(N4CC5(CN(CC6CCC6)C5)C4)c(F)c3c2C(C)C)cn2ncnc2c1C [Example 404]
0.015 µM | 0.046 µM | 17.1 µM |  |  | Cc1c(-c2[nH]c3cnc(N4CC5(CN(CC6(C)COC6)C5)C4)c(F)c3c2C(C)C)cn2ncnc2c1C [Example 405]
0.0048 µM | 0.0084 µM | 0.937 µM |  |  | Cc1c(-c2[nH]c3cnc(N4CC5(C4)CN(C4CCN(C(C)C)CC4)C5)c(F)c3c2C(C)C)cn2ncnc2c1C [Example 406]
0.828 µM | 0.047 µM | 35.4 µM |  |  | Cc1c(-c2[nH]c3cnc(N4CC5(CN(C)C5)C4)c(F)c3c2C(C)C)cn2ncnc2c1C [Example 407]
0.061 µM | 0.016 µM | 12.4 µM |  |  | CCN1CC2(C1)CN(c1ncc3[nH]c(-c4cn5ncnc5c(C)c4C)c(C(C)C)c3c1F)C2 [Example 408]
0.0034 µM | 0.0025 µM | > 50 µM |  |  | Cc1c(-c2[nH]c3cnc(N4CCN(C5COC5)CC4)c(F)c3c2C(C)C)cn2ncnc2c1C [Example 409]
0.0013 µM | 0.015 µM | > 50 µM |  |  | Cc1c(-c2[nH]c3cnc(N4CCN(CC5(C)COC5)CC4)c(F)c3c2C(C)C)cn2ncnc2c1C [Example 410]
0.00018 µM | 0.0096 µM | 11.2 µM |  |  | Cc1c(-c2[nH]c3cnc(N4CCN(CC5CCOCC5)CC4)c(F)c3c2C(C)C)cn2ncnc2c1C [Example 411]
0.00029 µM | 0.0067 µM | 5.74 µM |  |  | Cc1c(-c2[nH]c3cnc(N4CCN(C(C)C)CC4)c(F)c3c2C(C)C)cn2ncnc2c1C [Example 412]
0.0061 µM | 0.029 µM | > 50 µM |  |  | CNC(=O)CN1CCN(c2ncc3[nH]c(-c4cn5ncnc5c(C)c4C)c(C(C)C)c3c2C)CC1 [Example 413]
0.0062 µM | 0.041 µM | > 50 µM |  |  | Cc1c(-c2[nH]c3cnc(N4CCN(CC(N)=O)CC4)c(C)c3c2C(C)C)cn2ncnc2c1C [Example 414]
0.0052 µM | 0.026 µM | > 50 µM |  |  | Cc1c(-c2[nH]c3cnc(N4CCN(CCS(C)(=O)=O)CC4)c(C)c3c2C(C)C)cn2ncnc2c1C [Example 415]
0.0017 µM | 0.01 µM | 1.73 µM |  |  | Cc1c(-c2[nH]c3cnc(N4CCN(C(=O)CN(C)C)CC4)c(C)c3c2C(C)C)cn2ncnc2c1C [Example 416, 1-(4-(2-(7,8-dimethyl-[1,2,4]triazolo[1,5-a]pyridin-6-yl)-3-isopropyl-4-methyl-1H-pyrrolo[2,3-c]pyridin-5-yl)piperazin-1-yl)-2-(dimethylamino)ethan-1-one]
0.013 µM | 0.016 µM | > 50 µM |  |  | Cc1c(-c2[nH]c3cnc(N4CCN(C5COC5)CC4)c(C)c3c2C(C)C)cn2ncnc2c1C [Example 417, 6-(3-isopropyl-4-methyl-5-(4-(oxetan-3-yl)piperazin-1-yl)-1H-pyrrolo[2,3-c]pyridin-2-yl)-7,8-dimethyl-[1,2,4]triazolo[1,5-a]pyridine]
0.0022 µM | 0.019 µM | 6.01 µM |  |  | Cc1c(-c2[nH]c3cnc(N4CCN(C5CCOCC5)CC4)c(C)c3c2C(C)C)cn2ncnc2c1C [Example 418]
0.0014 µM | 0.032 µM | 5.91 µM |  |  | Cc1c(-c2[nH]c3cnc(N4CCN(CC5CCOCC5)CC4)c(C)c3c2C(C)C)cn2ncnc2c1C [Example 419]
0.012 µM | 0.016 µM | > 50 µM |  |  | Cc1c(-c2[nH]c3cnc(N4CCN(C(=O)CN5CCOCC5)CC4)c(F)c3c2C(C)C)cn2ncnc2c1C [Example 421]
0.002 µM | 0.0031 µM | 6.82 µM |  |  | Cc1c(-c2[nH]c3cnc(N4CCN(C(=O)CN(C)C)CC4)c(F)c3c2C(C)C)cn2ncnc2c1C [Example 422]
0.00059 µM | 0.0054 µM | 42.5 µM |  |  | Cc1c(-c2[nH]c3cnc(N4CCN(CC(=O)N5CCOCC5)CC4)c(F)c3c2C(C)C)cn2ncnc2c1C [Example 423]
0.00039 µM | 0.0063 µM | 17.7 µM |  |  | COCCN1CCN(c2ncc3[nH]c(-c4cn5ncnc5c(C)c4C)c(C(C)C)c3c2F)CC1 [Example 424]
